Assays:
[1] = ICR mouse pharmacokinetic research; format: in vivo; settings: plasma, po, ICR mice, intragastric administration 5 mg/kg
Description: ICR mice were used as test animals. The drug concentrations in plasma at different time points of the compounds in Comparative Example 1 and Example 17 of the present disclosure intragastrically administered to the mice were determined by LC/MS/MS method, to study the pharmacokinetic characteristics of the compounds of the present disclosure in mice.
Preparation for intragastric administration: An appropriate amount of the compound to be tested was weighed, added with an appropriate amount of DMSO: PEG 200=5%: 95% (v/v), shaken by vortex, and prepared into a solution with a final concentration of 0.5 mg/mL.
Intragastric administration group: After fasting overnight, the mice were intragastrically administered at a dose of 5 mg/kg and a volume of 10 mL/kg, and fed 4 h after the administration.
Intragastric administration group: About 100 μL of blood was collected through the orbital vein before administration and at 0.25 h, 0.5 h, 1 h, 2 h, 4 h, 8 h, 12 h and 24 h after administration.
The whole blood sample was put in an EDTA-K2 anticoagulant tube. The plasma was separated by centrifugation at 1500 g for 10 min. The collected upper layer plasma was stored at −40 to −20° C. before analysis.
The content of the compound to be tested in mouse plasma was determined by LC-MS/MS after the compound was intragastrically administered.

[2] = molecular target: T1, recombinant human KRAS G12C protein (Homo sapiens, UniProt P01116, G12C); assay: Covalent binding ability to KRAS G12C protein (LC-MS); settings: 3 μM, 5 min
T1 construct: The recombinant human KRAS G12C protein (aa1-169)
T1 sequence (P01116 1-169 isoform P01116-2 G12C): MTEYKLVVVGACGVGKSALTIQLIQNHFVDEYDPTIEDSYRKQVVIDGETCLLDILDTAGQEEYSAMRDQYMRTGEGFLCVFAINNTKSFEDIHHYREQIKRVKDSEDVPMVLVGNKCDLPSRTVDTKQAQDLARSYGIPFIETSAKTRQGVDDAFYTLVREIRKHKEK
Description: The following method was used to determine the covalent binding ability of the compounds of the present disclosure to recombinant human KRAS G12C protein under in vitro conditions.
The experimental procedure is briefly described as follows: The recombinant human KRAS G12C protein (aa1-169) was prepared with a reaction buffer (20 mM HEPES, 150 mM NaCl, 1 mM MgCl2, 1 mM DTT) at a concentration of 4 μM for later use. The test compound was prepared with DMSO into a 10 mM stock solution, which was then diluted with the reaction buffer for later use. First, 1.5 μL of the test compound diluted with the reaction buffer was added to each well (a final concentration of the reaction system was […]), then added with 23.5 μL of the reaction buffer, mixed well, then added with 25 μL of 4 μM recombinant human KRAS G12C protein for 5 min of incubation at room temperature, and added with 5 μL of acetic acid to stop the reaction. The samples were transferred to injection vials. The ratios of covalent binding between the test compounds and KRAS G12C protein were detected by Agilent 1290/6530 instrument, and the samples were analyzed in a liquid chromatography column (XBridge Protein BEH C4, 300 Å, 3.5 μm, 2.1 mm×50 mm). In the detection process, mobile phase A was 0.1% formic acid aqueous solution, mobile phase B was acetonitrile, the mobile phase elution program was as follows: mobile phase A was kept at 95% at 0-0.5 min, changed to 30% at 2.5 min for 0.5 min, and changed to 95% at 3.1 min for 1.9 min; and flow rate was 0.5 mL/min. Finally, the data was analyzed by MassHunter Workstation Software Bioconfirm Version B.08.00 to obtain the covalent binding rate between the test compound at a concentration of 3 μM and KRAS G12C protein under 5 min of incubation.

[3] = system: NCI-H358 cell xenograft tumor; assay: Pharmacodynamics in NCI-H358 cell BALB/c nude mouse subcutaneous xenograft model; format: in vivo, BALB/c nude mice; settings: 10 mg/kg po qd
Description: This test is used to evaluate the anti-tumor effect and safety of the compound 17 of the present disclosure in the animal model of BALB/c nude mouse subcutaneously transplanted with NCI-H358 (human non-small cell lung cancer) cell line after oral intragastric administration for 14 days, once a day.
An appropriate amount of compound 17 was weighed into a 10 mL centrifuge tube, added with an appropriate amount of DMA, shaken by vortex for complete dissolution of the solid matter, then added with an appropriate volume of 30% solutol HS 15, shaken by vortex, mixed well, and added with normal saline to make the ratio of DMA:30% solutol HS 15:saline 10:10:80 (v/v/v), for a preparation at a concentration of 1 mg/mL for administration.
About 3.7×10^6 NCI-H358 cells were subcutaneously inoculated on the right side of the back of female BALB/c nude mice. When the average volume of the tumor reached about 100-150 mm^3, the mice were randomly divided into 2 groups according to the size of the tumor, 6 mice in each group.
After tumor inoculation, a subcutaneous xenograft tumor model was established. Each treatment group and the vehicle control group were orally intragastrically administered for 14 days. The animals were weighed daily, and the tumor volume was measured twice a week.
Formulas for calculating the tumor volume (TV), relative tumor proliferation rate (T/C), relative tumor growth inhibition rate (TGI) and tumor inhibition rate (IR) are as follows: • (1) TV (tumor volume)=½×a×b^2, where a and b represent the length and width of the tumor, respectively; • (2) T/C (relative tumor proliferation rate, %)=TRTV/CRTV×100%, where TRTV is the RTV of the treatment group, and CRTV is the RTV of the control group; • (3) TGI % (tumor growth inhibition rate)=(1−T/C)×100%; where T and C are the relative tumor volumes at a specific time point in the treatment group and the control group, respectively. • (4) IR (%) (tumor weight inhibition rate)=(1−TWt/TWc)×100%, where TWt is the tumor weight in the treatment group, and TW is the tumor weight in the control group.

AUC(0-inf) ([1]; read-out: Area under curve AUC0-∞): 6380 ng·h/mL
Cmax ([1]; read-out: Blood concentration Cmax): 1400 ng/mL
half-life ([1]; read-out: Half-life T½ (converted)): 2.36 h
Covalent binding rate (%) [2]: 63.4%
SMILES: C=CC(=O)N1C[C@@H]2C(=O)N(C)c3c(c4cc(Cl)c(-c5c(O)cccc5F)nc4n(-c4c(SC)ccnc4C(C)C)c3=O)N2C[C@H]1C (single isomer, unassigned) [Compound 17]
IR (tumor weight inhibition rate) ([3]; 14 days): 90.8%
Tumor weight (x ± S) ([3]; 14 days): 0.0157 ± 0.0033 g
T/C (%) ([3]; Day 15 after administration): 15.6%
TGI (%) ([3]; Day 15 after administration): 84.4%
Tumor volume (x ± S) ([3]; Day 15 after administration, mean ± standard error): 52 ± 15 mm^3
Body weight change ([3]; within 14 days): without significant body weight change
Growth inhibitory effect on the tumor model (in words) ([3]; within 14 days): obvious growth inhibitory effect
